# Patent US20250249001A1, “METHODS OF TREATING SUBSTANCE USE DISORDER WITH 4-(3-CYANOPHENYL)-6-PYRIDINYLPYRIMIDINE MGLU5 NEGATIVE ALLOSTERIC MODULATORS” (Tempero Bio, Inc., priority 2022, published 2025)
# Assays:
# [1] = system: Wistar rats, open-field locomotor activity; experiment: Open-field locomotor test for nonspecific behavioral effects; assay type: in vivo; conditions: 3 mg/kg i.p., 1-hr pretreatment
# Method: Locomotor activity: testing for nonspecific behavioral effects. After completion of the Compound 1 dose response curve, potential nonspecific effects of Compound 1 (3 mg/kg) were assessed using the open-field locomotor test. This test evaluates potential effects on motor activity and anxiety-like behavior. Rats were administered Compound 1 (0 or 3 mg/kg, i.p.) in a randomized counterbalanced order. After a 1-hr pretreatment period (matching the pretreatment period used in the drinking study), rats were placed in the open-field apparatus and locomotor activity was computer-monitored for 1-hr. To assess anxiety-like behavior, activity in the center zone of the open field was analyzed.
# Open-field locomotor test for nonspecific behavioral effects. Pharmacological manipulations have the potential to alter rodent behavior by producing nonspecific effects on motor ability, learning and memory, or emotional processing. The open field test is a widely used method for assessing all these potential nonspecific effects in a single test. In this method, rodents are injected with a test compound and placed in an open-field apparatus that records ambulatory behavior in real time via computer analysis of photobeam breaks (FIG. 3A). […] Similarly, Compound 1 (3 mg/kg) had no effect on summary measures of total ambulatory distance (FIG. 3C) or total ambulatory time (FIG. 3D) as compared to vehicle control.
# [2] = system: operant alcohol self-administration in Wistar rats; experiment: Operant alcohol self-administration, repeated oral pellet treatment (A-B-A); assay type: in vivo; conditions: 10 mg/kg oral in palatable food pellet, 2-hr before daily sessions, 7 days (Days 6-12)
# Method: Repeated treatment with Compound 1. To evaluate effects of repeated treatment with Compound 1 on operant alcohol self-administration, a separate group of rats (n=12) was trained to self-administer alcohol as described above. After operant behavior reached a stable baseline, habituation to i.p. injections were conducted as described above. […] Another group of rats (n=12) was then trained to self-administer alcohol and a new injection protocol (e.g., 2-hr pretreatment time) was initiated. […] In a final attempt to evaluate repeated treatment, we re-established baseline behavior in the same rats and administered Compound 1 (0 and 10 mg/kg) orally in a palatable food pellet as previously reported. Doses were administered according to an A-B-A (vehicle-Compound 1-vehicle) experimental design with 5 consecutive days of exposure to each vehicle treatment and 7 days of exposure to Compound 1. There was no observable stress response using this method of exposure. Operant self-administration (number of alcohol reinforced lever presses) was recorded during daily 15-min test sessions (n=12 rats).
# In a final attempt to salvage the study, injections were halted in the second group of rats and EtOH self-administration behavior was allowed to stabilize over a 1-week period. […]
structure (smiles),measurement,setting,value
"N#Cc1cc(Cl)cc(-c2cc(-c3ccc(F)cn3)ncn2)c1 [Compound 1, 3-chloro-5-[6-(5-fluoropyridin-2-yl)pyrimidin-4-yl]benzonitrile]",motor activity in the center zone of the open field (anxiety-like behavior),[1],normal avoidance of the center zone
same,total ambulatory distance,[1],no effect
same,total ambulatory time,[1],no effect
same,initial exploration or habituation to the novel open-field environment,[1]; 1-hr test,no effect
same,"EtOH reinforced lever press responses, repeated treatment",[2],failed to alter operant alcohol self-administration
